Patent US20230002373A1, “COMPOUNDS AND COMPOSITIONS FOR TREATING CONDITIONS ASSOCIATED WITH STING ACTIVITY” (IFM Due, Inc., priority 2019, published 2023)
pEC50: −log10 of the molar value.

Target: T1, hSTING (Homo sapiens, UniProt Q86WV6, G230A/H232R/R293Q/R71H)
T1 construct: host or cells: THP1-Dual KO-IFNAR2 cells
Assay: STING reporter assay (luciferase) in THP1-Dual KO-IFNAR2 cells stimulated with 2′3′cGAMP
Assay type: cell-based
Settings: 15 μM 2′3′cGAMP, 24 h
Description: STING pathway activation by the compounds described herein was measured using THP1-Dual™ cells (KO-IFNAR2).
THP1-Dual™ KO-IFNAR2 Cells (obtained from invivogen) were maintained in RPMI, 10% FCS, 5 ml P/S, 2 mM L-glut, 10 mM Hepes, and 1 mM sodium pyruvate. Compounds were spotted in empty 384 well tissue culture plates (Greiner 781182) by Echo for a final concentration of 0.0017-100 μM. Cells were plated into the TC plates […], 2×10E6 cells/mL. For activation with STING ligand, 2′3′cGAMP (MW 718.38, obtained from Invivogen), was prepared in Optimem media.
The following solutions were prepared for each 1×384 plate: • Solution A: 2 mL Optimem with one of the following stimuli: • 60 μL of 10 mM 2′3′cGAMP->150 μM stock • Solution B: 2 mL Optimem with 60 μL Lipofectamine 2000->Incubate 5 min at RT
2 mL of solution A and 2 ml Solution B was mixed and incubated for 20 min at room temperature (RT). 20 uL of transfection solution (A+B) was added on top of the plated cells, with a final 2′3′cGAMP concentration of 15 μM. The plates were then centrifuged immediately at 340 g for 1 minute, after which they were incubated at 37° C., 5% CO2, >98% humidity for 24 h. Luciferase reporter activity was then measured. EC50 values were calculated by using standard methods known in the art.
Luciferase reporter assay: 10 μL of supernatant from the assay was transferred to white 384-plate with flat bottom and squared wells. One pouch of QUANTI-Luc™ Plus was dissolved in 25 mL of water. 100 μL of QLC Stabilizer per 25 mL of QUANTI-Luc™ Plus solution was added. 50 μL of QUANTI-Luc™ Plus/QLC solution per well was then added. Luminescence was measured on a Platereader (e.g., Spectramax I3X (Molecular Devices GF3637001)).
Luciferase reporter activity was then measured. EC50 values were calculated by using standard methods known in the art.

T1 sequence (Q86WV6 whole entry R71H/G230A/H232R/R293Q): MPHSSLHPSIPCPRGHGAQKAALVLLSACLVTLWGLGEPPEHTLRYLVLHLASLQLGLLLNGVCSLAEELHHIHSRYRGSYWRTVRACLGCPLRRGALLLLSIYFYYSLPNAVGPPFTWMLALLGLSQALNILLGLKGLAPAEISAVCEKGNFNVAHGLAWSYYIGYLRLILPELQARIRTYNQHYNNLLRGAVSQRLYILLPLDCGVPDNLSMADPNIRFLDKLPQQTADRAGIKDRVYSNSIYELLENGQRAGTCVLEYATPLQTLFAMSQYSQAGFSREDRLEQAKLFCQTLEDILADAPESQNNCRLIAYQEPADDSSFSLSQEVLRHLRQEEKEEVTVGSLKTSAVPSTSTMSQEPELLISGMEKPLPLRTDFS

| SMILES | pEC50 (class symbols) | pEC50 (numeric bounds) |
| --- | --- | --- |
| O=C(Nc1c[nH]c2ncc(F)cc12)C(=O)N[C@H]1CCCC2(CCCCC2)C1 (single isomer, unassigned) [Compound 196, N-[5-fluoro-1H-pyrrolo[2,3-b]pyridin-3-yl]-N′-[(2S or 2R)-spiro[5.5]undecan-2-yl]ethanediamide] | 5.30 to 6.00 | – |
| O=C(Nc1c[nH]c2ncc(F)cc12)C(=O)N[C@@H]1CCCC2(CCCCC2)C1 (single isomer, unassigned) [Compound 197, N-[5-fluoro-1H-pyrrolo[2,3-b]pyridin-3-yl]-N′-[(2R or 2S)-spiro[5.5]undecan-2-yl]ethanediamide] | 4.00 to 5.30 | – |
| O=C(Nc1c[nH]c2ncc(F)cc12)C(=O)N[C@H]1CCC2(CCCC2)C1 (single isomer, unassigned) [Compound 199] | 4.00 to 5.30 | – |
| O=C(Nc1c[nH]c2ncc(F)cc12)C(=O)N[C@@H]1CCC2(CCCC2)C1 (single isomer, unassigned) [Compound 200] | 4.00 to 5.30 | – |
| O=C(Nc1c[nH]c2ncc(F)cc12)C(=O)N[C@H]1CCC2(CCCCC2)C1 (single isomer, unassigned) [Compound 201] | 5.30 to 6.00 | – |
| O=C(Nc1c[nH]c2ncc(F)cc12)C(=O)N[C@@H]1CCC2(CCCCC2)C1 (single isomer, unassigned) [Compound 202] | 4.00 to 5.30 | – |
| Cc1cc(NC(=O)C(=O)Nc2c[nH]c3ncc(F)cc23)cc(C(F)(F)F)c1 [Compound 101, N^1-(5-fluoro-1H-pyrrolo[2,3-b]pyridin-3-yl)-N^2-(3-methyl-5-(trifluoromethyl)phenyl)oxalamide] | 6.00 to 6.70 | – |
| O=C(Nc1ccc(C2CCCCC2)nc1)C(=O)Nc1c[nH]c2ncc(F)cc12 [Compound 102, N^1-(6-cyclohexyl-pyridin-3-yl)-N^2-(5-fluoro-1H-pyrrolo[2,3-b]pyridin-3-yl)oxalamide] | 5.30 to 6.00 | – |
| O=C(Nc1c[nH]c2ncc(F)cc12)C(=O)NC1CCC2(CCCCC2)CC1 [Compound 103, N^1-(5-fluoro-1H-pyrrolo[2,3-b]pyridin-3-yl)-N^2-(spiro[5.5]undecan-3-yl)oxalamide] | 6.00 to 6.70 | – |
| O=C(NCC12CC3CC(CC(C3)C1)C2)C(=O)Nc1c[nH]c2ncc(F)cc12 [Compound 105, N^1-(adamantan-1-ylmethyl)-N^2-(5-fluoro-1H-pyrrolo[2,3-b]pyridin-3-yl)oxalamide] | 4.00 to 5.30 | – |
| Cc1cc(NC(=O)C(=O)Nc2c[nH]c3cccnc23)cc(C(F)(F)F)c1 [Compound 107, N^1-(3-methyl-5-(trifluoromethyl)phenyl)-N^2-(1H-pyrrolo[3,2-b]pyridin-3-yl)oxalamide] | 6.00 to 6.70 | – |
| O=C(Nc1cnc2c(c1)CCCC2)C(=O)Nc1c[nH]c2cccnc12 [Compound 108, N^1-(1H-pyrrolo[3,2-b]pyridin-3-yl)-N^2-(5,6,7,8-tetrahydro-quinolin-3-yl)oxalamide] | – | < 4.00 |
| Cc1ccc(CNC(=O)C(=O)Nc2c[nH]c3cccnc23)cc1C(F)(F)F [Compound 109, N^1-(4-methyl-3-(trifluoromethyl)benzyl)-N^2-(1H-pyrrolo[3,2-b]pyridin-3-yl)oxalamide] | 6.00 to 6.70 | – |
| O=C(NCc1ccc(-c2ccccc2C(F)(F)F)cc1)C(=O)Nc1c[nH]c2cccnc12 [Compound 110, N^1-(1H-pyrrolo[3,2-b]pyridin-3-yl)-N^2-((2′-(trifluoromethyl)-[1,1′-biphenyl]-4-yl)methyl)oxalamide] | 5.30 to 6.00 | – |
| O=C(NCC1CC2C=CC1C2)C(=O)Nc1c[nH]c2cccnc12 (stereo not drawn) [Compound 111, N^1-(bicyclo[2.2.1]hept-5-en-2-ylmethyl)-N^2-(1H-pyrrolo[3,2-b]pyridin-3-yl)oxalamide] | 4.00 to 5.30 | – |
| O=C(Nc1ccc(C(F)(F)F)cn1)C(=O)Nc1c[nH]c2ccncc12 [Compound 113, N^1-(1H-pyrrolo[3,2-c]pyridin-3-yl)-N^2-(5-(trifluoromethyl)pyridin-2-yl)oxalamide] | 5.30 to 6.00 | – |
| O=C(Nc1cccc(C(F)(F)F)c1)C(=O)Nc1c[nH]c2ccncc12 [Compound 114, N^1-(1H-pyrrolo[3,2-c]pyridin-3-yl)-N^2-(3-(trifluoromethyl)phenyl)oxalamide] | 5.30 to 6.00 | – |

| SMILES | pEC50 (class symbols) | pEC50 (numeric bounds) |
| --- | --- | --- |
| Cc1cc(NC(=O)C(=O)Nc2c[nH]c3ccncc23)cc(C(F)(F)F)c1 [Compound 115, N^1-(3-methyl-5-(trifluoromethyl)phenyl)-N^2-(1H-pyrrolo[3,2-c]pyridin-3-yl)oxalamide] | 6.00 to 6.70 | – |
| Cc1ccc(CNC(=O)C(=O)Nc2c[nH]c3ccncc23)cc1C(F)(F)F [Compound 119, N^1-(4-methyl-3-(trifluoromethyl)benzyl)-N^2-(1H-pyrrolo[3,2-c]pyridin-3-yl)oxalamide] | 6.00 to 6.70 | – |
| O=C(NCc1ccc(-c2ccccc2C(F)(F)F)cc1)C(=O)Nc1c[nH]c2ccncc12 [Compound 120, N^1-(1H-pyrrolo[3,2-c]pyridin-3-yl)-N^2-((2′-(trifluoro-methyl)-[1,1′-biphenyl]-4-yl)methyl)oxalamide] | 6.00 to 6.70 | – |
| O=C(Nc1c[nH]c2ccncc12)C(=O)NC1CCC2(CCCCC2)CC1 [Compound 121, N^1-(1H-pyrrolo[3,2-c]pyridin-3-yl)-N^2-(spiro[5.5]undecan-3-yl)oxalamide] | 5.30 to 6.00 | – |
| O=C(NCCC1CCC(F)(F)CC1)C(=O)Nc1c[nH]c2ccncc12 [Compound 122, N^1-(2-(4,4-difluorocyclo-hexyl)ethyl)-N^2-(1H-pyrrolo[3,2-c]pyridin-3-yl)oxalamide] | 4.00 to 5.30 | – |
| O=C(NCC12CC3CC(CC(C3)C1)C2)C(=O)Nc1c[nH]c2ccncc12 [Compound 124, N^1-(adamantan-1-ylmethyl)-N^2-(1H-pyrrolo[3,2-c]pyridin-3-yl)oxalamide] | 5.30 to 6.00 | – |
| O=C(Nc1ccc(C(F)(F)F)cc1)C(=O)Nc1c[nH]c2ncc(F)cc12 [Compound 125] | 5.30 to 6.00 | – |
| Cc1ccc(CNC(=O)C(=O)Nc2c[nH]c3ccc(Br)nc23)cc1C(F)(F)F [Compound 128] | 6.00 to 6.70 | – |
| O=C(NCC1(c2cccc(Cl)c2)CC1)C(=O)Nc1c[nH]c2ccncc12 [Compound 129] | 4.00 to 5.30 | – |
| Cc1ccc(CNC(=O)C(=O)Nc2c[nH]c3ccc(-c4cnn(C)c4)nc23)cc1C(F)(F)F [Compound 130] | 5.30 to 6.00 | – |
| O=C(NCc1ccc(C(F)(F)F)c(Cl)c1)C(=O)Nc1c[nH]c2ncc(F)c(F)c12 [Compound 131] | 4.00 to 5.30 | – |
| O=C(NCC1CCc2ccccc2O1)C(=O)Nc1c[nH]c2cccnc12 (stereo not drawn) [Compound 132, N1-(chroman-2-ylmethyl)-N2-(1H-pyrrolo[3,2-b]pyridin-3-yl)oxalamide] | – | < 4.52 |
| O=C(NCCOc1ccc(C(F)(F)F)cc1)C(=O)Nc1c[nH]c2cccnc12 [Compound 133, N1-(1H-pyrrolo[3,2-b]pyridin-3-yl)-N2-(2-(4-(trifluoromethyl)phenoxy)ethyl)oxalamide] | – | < 4.52 |
| O=C(Nc1c[nH]c2cccnc12)C(=O)NC(c1ccc(F)cc1)C1CC1 (stereo not drawn) [Compound 135, N1-(cyclopropyl(4-fluorophenyl)methyl)-N2-(1H-pyrrolo[3,2-b]pyridin-3-yl)oxalamide] | – | < 4.52 |
| Cc1cc(F)c(Cl)cc1NC(=O)C(=O)Nc1c[nH]c2cccnc12 [Compound 136, N1-(5-chloro-4-fluoro-2-methylphenyl)-N2-(1H-pyrrolo[3,2-b]pyridin-3-yl)oxalamide] | 4.00 to 5.30 | – |
| CC(CNC(=O)C(=O)Nc1c[nH]c2cccnc12)Oc1ccc(C(F)(F)F)cc1 (stereo not drawn) [Compound 137, N1-(1H-pyrrolo[3,2-b]pyridin-3-yl)-N2-(2-(4-(trifluoromethyl)phenoxy)propyl)oxalamide] | 4.00 to 5.30 | – |
